According to patent US9592237B2, “Use of CB1 antagonists and/or inverse agonists for the preparation of drugs that increase motor neuron excitability” (Fundacion Del Hospital Nacional De Paraplejicos Para La …, priority 2009, dated 2017):

Assays:
Male adult Wistar rats = test: Forced run on conveyer belt (fatigue), uninjured rats; type: in vivo, rat; details: 0.25 mg/Kg intraperitoneal; for effect on latency (Δ latency) in forced run: after injection, compared with carrier, result in words; for improvement in resistance to fatigue (decrease in latency) with respect to carrier: single injection, average
Method: (§1) Animals. Male adult Wistar rats were used (300-350 g; 12 weeks old), obtained from Harlan-Interfauna Ibérica (Barcelona, Spain) kept in our animal house in a light:dark cycle of 12:12 hours, receiving food and water ad libitum. The animals were handled in accordance with the guides published in the “NIH Guide for the Care and Use of Laboratory Animals”, the principles covered by the “Guidelines for the Use of Animals in Neuroscience Research” published by the American Neuroscience Society, and the European Union Guidelines (Directive 86/609/EEC). The rats were assigned to the groups with injection of carrier or the CB1 antagonists/inverse agonists (rimonabant (SR141716A) or AM281). Five uninjured animals and 3 injured animals were used for each group.
(§2) The rats were acclimatized to the conveyer belt making them walk on the belt at low speed. The forced run protocol consisted of a first session of 15 minutes run (20 m/min, 5% inclination) followed by a second session 2 hours later (Fatigue 2 h). The same protocol was repeated the following day to study the continuance of the effects observed with the treatment (Fatigue 24 h). In order to keep the rats running throughout the study, mild electric shock was used (20 mV, 1.67 Hz) and, possible, gentle touches by the experimenter's hand. The drugs were administered immediately after the first session of the first day. The treatments consisted of a single intraperitoneal injection of SR141716A (0.25 mg/Kg), or AM281 (0.25 mg/Kg), or carrier (2.5% Bovine Serum Albumin, SIGMA, Spain, in 0.9% NaCl).
Latency was defined as the number of seconds during the experiment where the animals touched the grille located at the end of the conveyer belt. The animals that remained more than twice at the electric grille receiving discharges of over 10 seconds were considered exhausted and were returned to their cages. In this case, latency time was also considered the remaining time until the end of the protocol. The latency increase (αlatency) was calculated as the difference between the action of the rat at each time minus the values of the first session. Therefore, the negative measurements reflect a decrease in latency, and, therefore, an improvement in motor capacity.

healthy volunteers [1] = test: Motor thresholds by transcranial magnetic stimulation (TMS), first dorsal interosseous; type: in vivo, human; details: % of maximum stimulator output, 24 hours after single dose of 20 mg, ±SD
Method: (§3) The objective of the present experiments was to use transcranial magnetic and electric stimulation to test the effects of a single dose of 20 mg of rimonabant in motor cortex and spinal motor neuron excitability.
(§4) A neurophysiological examination was carried out before and 24 hours after administration of a single dose of 20 mg of rimonabant.
(§5) Using transcranial magnetic stimulation (TMS) we evaluate the electromyographic response thresholds in the first dorsal interosseous (FDI) at rest and during voluntary contraction. Using transcranial electric stimulation (TES) we evaluate the electromyographic response thresholds in the first dorsal interosseous during voluntary contraction. Transcranial electric stimulation tends to activate the axons of the corticospinal neurons in the white matter whilst magnetic stimulation activates the same fibres trans-synaptically (Hallett, 2000 Jul. 13, 406 (6792):147-50). Therefore, the response evoked electrically are not as sensitive to changes in cortical excitability as those evoked by magnetic stimulation. We also evaluate short-latency intracortical facilitation (ICF). ICF was studied using the technique of Kujirai et al. (J Physiol. 1993 Nov; 471:501-19). […]

healthy volunteers [2] = test: Active motor threshold by transcranial electric stimulation (TES); type: in vivo, human; details: % of maximum stimulator output; 24 hours after single dose of 20 mg; six subjects; baseline 19.6±6%; P=0.0164; ±SD
Method: as §3, §4
Using transcranial magnetic stimulation (TMS) we evaluate the electromyographic response thresholds in the first dorsal interosseous (FDI) at rest and during voluntary contraction. Using transcranial electric stimulation (TES) we evaluate the electromyographic response thresholds in the first dorsal interosseous during voluntary contraction. Transcranial electric stimulation tends to activate the axons of the corticospinal neurons in the white matter whilst magnetic stimulation activates the same fibres trans-synaptically (Hallett, 2000 Jul. 13, 406 (6792):147-50). Therefore, the response evoked electrically are not as sensitive to changes in cortical excitability as those evoked by magnetic stimulation. We also evaluate short-latency intracortical facilitation (ICF). ICF was studied using the technique of Kujirai et al. (J Physiol. 1993 Nov; 471:501-19).
In six subjects we also performed electric stimulation of the motor cortex during voluntary contraction. This was performed with a Digitimer D180A digital stimulator with a time constant of 50 μs. […]

healthy volunteers [3] = test: Intracortical facilitation (ICF), paired-pulse TMS; type: in vivo, human; details: % of response to test stimulus without conditioning stimulus; 24 hours after single dose of 20 mg; baseline 117±21%; P=0.0212; ±SD
Method: as §4, §5
The response facilitation conditional upon the three different ISIs studied was then averaged to give a magnified average value. The amplitude of the motor evoked potentials was expressed as percentages of amplitude of the motor evoked potentials of the tests. […]

[4] = tested on: rats with moderate spinal cord lesion; test: Modified forced run on conveyer belt, rats with moderate spinal cord lesion; type: in vivo, rat; details: 0.25 mg/Kg intraperitoneal; for improvement in resistance to fatigue (decrease in latency) with respect to carrier: 7 days after lesion, average
Method: as §1
as §2, with “The treatments consisted of a single intraperitoneal injection of SR141716A (0.25 mg/Kg), or AM281 (0.25 mg/Kg), or carrier (2.5% Bovine Serum Albumin, SIGMA, Spain, in 0.9% NaCl).” left out
Latency was defined as the number of seconds during the experiment where the animals touched the grille located at the end of the conveyer belt. […] The latency increase (αlatency) was calculated as the difference between the action of the rat at each time minus the values of the first session. […]
6 animals were subjected to a moderate spinal cord lesion by, using the “Infinite Horizon” motorized system (Precision Systems & Instrumentation, [PSI], Lexington, Ky.). […] The hydration state was monitored as was the presence of possible infections in the animals until the end of the experiment. […]

healthy volunteers [5] = test: Adverse effects observed in subjects of the stimulation study; type: in vivo, human; details: single dose of 20 mg
Method: as §4
Nine healthy volunteers (average age±S.D 32.1±5.8 years) participated in the experiments using TMS (transcranial magnetic stimulation) and six participated in the experiments with electric stimulation. All subjects gave their informed written consent. The study was developed in accordance with the Declaration of Helsinki and approved by the Local Ethics Committee. The magnetic stimulation was developed using two Magstim 200 high-power magnetic stimulators (Magstim Co., Whitland, UK) connected to the Bistim Module during all measurements. A figure of 8 shaped coil was placed with an external diameter of 9 cm on the right motor cortex, in optimal position of the head to provoke a motor response in the contralateral first dorsal interosseous. The current induced a flow in the posteroanterior direction. The rest motor threshold (RMT) was defined as the stimulus of minimum intensity capable of producing a motor evoked response at rest (of around 50 μV in 50% of the 10 attempts). The active motor threshold (AMTtms) was defined as the stimulus of minimum intensity capable of producing a motor evoked response (around 200 μV in 50% of the 10 attempts) during the isometric contraction of the muscle tested at approximately 20% of the maximum. A constant voluntary contraction level was maintained by electromyogram display oscilloscope placed in front of the subject.
In six subjects we also performed electric stimulation of the motor cortex during voluntary contraction. This was performed with a Digitimer D180A digital stimulator with a time constant of 50 μs. The cathode was placed in the vertex and the anode at 7 cm laterally (anodic stimulation). We evaluate the active electric motor threshold (AMTtes) defined as the stimulus of minimum intensity capable of producing a motor evoked response of around 200 μV in 50% of ten attempts during the voluntary contraction.

| SMILES | effect on latency (Δ latency) in forced run (Male adult Wistar rats) | improvement in resistance to fatigue (decrease in latency) with respect to carrier (Male adult Wistar rats; 2 hours after fatigue) | improvement in resistance to fatigue (decrease in latency) with respect to carrier (Male adult Wistar rats; 24 hours after fatigue) | active motor threshold using transcranial magnetic stimulation (AMTtms), mean (healthy volunteers [1]; baseline 39±4%, P=0.0008) | resting motor threshold using transcranial magnetic stimulation (RMT), mean (healthy volunteers [1]; baseline 48±6%, P=0.0775 (not significant)) | active motor threshold using transcranial electric stimulation (AMTtes), mean (healthy volunteers [2]) | intracortical facilitation (ICF), mean (healthy volunteers [3]) | effect on latency (Δ latency) in forced run ([4]; 2 hours after injection compared with carriers, result in words) | improvement in resistance to fatigue (decrease in latency) with respect to carrier ([4]; 2 hours after fatigue) | improvement in resistance to fatigue (decrease in latency) with respect to carrier ([4]; 24 hours after fatigue) | duration of agitation and anxiety, average (healthy volunteers [5]; affected subjects) | effects on attention (healthy volunteers [5]; healthy volunteers) | subjects with agitation and anxiety (healthy volunteers [5]; nine healthy volunteers) | subjects with nauseas (healthy volunteers [5]; nine healthy volunteers, during 24 h) |
| --- | --- | --- | --- | --- | --- | --- | --- | --- | --- | --- | --- | --- | --- | --- |
| Cc1c(C(=O)NN2CCOCC2)nn(-c2ccc(Cl)cc2Cl)c1-c1ccc(I)cc1 [AM281] | decreased latency | 185 s | 207 s |  |  |  |  |  |  |  |  |  |  |  |
| Cc1c(C(=O)NN2CCCCC2)nn(-c2ccc(Cl)cc2Cl)c1-c1ccc(Cl)cc1 [rimonabant, N-(piperidin-1-yl)-5-(4-chlorophenyl)-1-(2,4-dichlorophenyl)-4-methyl-1H-pyrazole-3-carboxamide] | decreased latency | 75 s | 125 s | 35.5±4% | 46.5±6% | 17.5±6% | 150±40% | decreased latency | 136 s | 200 s | 6 h | moderate | Three of the subjects experienced agitation and anxiety | one suffered nauseas |
